US20050032761A1, “Lipid profile modulation” (priority 2001, published 2005)
Values belong to the compound of their own block, whether it stands above or below them.

Assays:
[1] = Hypothalamic pituitary adrenal axis: adrenal weight and plasma corticosterone in Zucker rats; type: in vivo
Method: (§1) Drug treatment—Drug treatment was commenced when the animals were 6 weeks of age. […] Animals were weighed regularly to allow accurate dosing with drugs, and to follow the progress of weight gain. Food intake for each cage of 4 animals was measured daily. After two weeks of treatment animals underwent an oral glucose tolerance test, which consisted of an overnight fast, followed by an oral glucose load of 2 g/kg body weight at 0900 h. Blood samples were taken by tail-nick at 0, 30 and 120 min after the glucose bolus. […] Plasma assays—Corticosterone levels were measured in plasma prepared from terminal blood samples collected at 0900-1100 h using an in-house radioimmunoassay (74). The inter- and intra-assay coefficients of variation were<10%.

[2] = Carbenoxolone randomised double-blind crossover study, fasting plasma lipids; conditions: men with type 2 diabetes mellitus and healthy controls, vs placebo
Source text: Fasting levels of plasma lipids are shown.

[3] = Oral glucose tolerance test in lean and obese Zucker rats; type: in vivo
Method: as §1, with “Glucose concentrations” for “Plasma assays—Corticosterone levels”, “determined” for “measured in plasma prepared from terminal blood samples collected at 0900-1100 h”, “a hexokinase glucose assay kit (Sigma, Poole, UK), for which the” for “an in-house radioimmunoassay (74). The”, “were both <2%.” for “were<10%.”

[4] = molecular target: T1, 11β-HSD1 (Rattus norvegicus, UniProt P16232); assay: 11β-HSD1 activity in tissue homogenates after carbenoxolone administration; set-up: from tissue; host or cells: Zucker rat liver, quadriceps skeletal muscle, subcutaneous lumbar fat, omental fat homogenates; species or system Zucker rats; conditions: ex vivo, liver; lean and obese animals
Method: (§2) Drug treatment—Drug treatment was commenced when the animals were 6 weeks of age. […] Animals were weighed regularly to allow accurate dosing with drugs, and to follow the progress of weight gain. Food intake for each cage of 4 animals was measured daily. After two weeks of treatment animals underwent an oral glucose tolerance test, which consisted of an overnight fast, followed by an oral glucose load of 2 g/kg body weight at 0900 h. Blood samples were taken by tail-nick at 0, 30 and 120 min after the glucose bolus.
Measurement of enzyme activities in vitro—11β-HSD1 activity was measured in homogenates of tissues by incubating in duplicate at 37° C., in Krebs Ringer buffer containing glucose (0.2%), NADP (2 mM) and 1,2,6,7-[^3H]4-corticosterone (100 nM). Conditions were optimised for each tissue to ensure first order kinetics, by adjusting protein concentrations as follows: 10 μg/ml for liver; 1.5 mg/ml for quadriceps skeletal muscle; 0.5 mg/ml for subcutaneous lumbar fat and 1 mg/ml for omental fat. […] Steroids were separated by HPLC using a reverse phase μ-Bondapak C18 column at 20° C. and quantified by on-line liquid scintillation counting. No peaks other than ^3H-corticosterone and ^3H-11-dehydrocorticosterone were detected under these conditions.

[5] = Non-fasting plasma lipid levels in lean and obese Zucker rats; type: in vivo
Method: Drug treatment—Drug treatment was commenced when the animals were 6 weeks of age. […] Animals were weighed regularly to allow accurate dosing with drugs, and to follow the progress of weight gain. Food intake for each cage of 4 animals was measured daily. After two weeks of treatment animals underwent an oral glucose tolerance test, which consisted of an overnight fast, followed by an oral glucose load of 2 g/kg body weight at 0900 h. Blood samples were taken by tail-nick at 0, 30 and 120 min after the glucose bolus. […] Lipid levels were measured in plasma prepared from terminal blood samples collected at 0900-1100 h. Triglycerides, total cholesterol and HDL cholesterol were measured using […] (TG, CHOL and HDL C-plus respectively) from Roche Diagnostics, Mannheim, Germany. Non-esterified fatty acids (NEFAs) were measured using the Wako NEFA C enzymatic assay (Alpha Laboratories Ltd, Hampshire, UK).

[6] = molecular target: T2, 11β-HSD1 (Homo sapiens, UniProt P28845); conditions: humans; cited from earlier work
T2 construct: host or cells: human subjects in vivo

[7] = molecular target: T3, 5β-reductase (Rattus norvegicus, UniProt P31210); assay: Hepatic 5β-reductase activity in liver cytosol after carbenoxolone administration; type: in vivo, Zucker rats; conditions: obese animals
T3 construct: conversion of [^3H]-corticosterone to [^3H]-5β-tetrahydrocorticosterone in liver cytosol preparations; from tissue; host or cells: Zucker rat liver cytosol
T3 sequence (P31210 1-326): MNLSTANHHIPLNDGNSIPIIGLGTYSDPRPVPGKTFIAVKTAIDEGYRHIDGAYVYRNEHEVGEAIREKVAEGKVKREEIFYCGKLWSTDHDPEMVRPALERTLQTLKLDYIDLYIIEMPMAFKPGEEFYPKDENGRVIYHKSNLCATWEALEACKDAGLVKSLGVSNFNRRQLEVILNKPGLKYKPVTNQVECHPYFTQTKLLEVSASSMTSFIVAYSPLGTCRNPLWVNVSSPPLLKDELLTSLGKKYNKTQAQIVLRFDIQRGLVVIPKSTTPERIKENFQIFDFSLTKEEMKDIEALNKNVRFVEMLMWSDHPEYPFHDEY
Method: as §2
5β-Reductase activity in the liver was assessed by the conversion of [^3H]-corticosterone to [^3H]-5β-tetrahydrocorticosterone in liver cytosol preparations. The sub-cellular localisation and cofactor preference of 11β-HSD1 and 5β-reductase differ such that the enzyme activities can be measured independently of one another. Liver cytosol was prepared by repeated centrifugation according to the method of (Fleischer & Kervina 1974). Enzyme activity was measured by incubating cytosol (100 μg protein/ml) in duplicate at 37° C., in phosphate buffer (40 mM Na2PO4, 320 mM sucrose, 1 mM dithiothreitol, pH 7.5) containing NADPH (1 mM) and [^3H]-corticosterone (150 nM). […] Steroids were separated by HPLC using a reverse phase C8 column at 10° C., and quantified by on-line liquid scintillation counting. […]

[8] = Food intake and body weight in lean and obese Zucker rats treated with carbenoxolone; type: in vivo; conditions: lean or obese animals; 50 mg/kg by gavage daily, three weeks
Method: as §2, with “Groups of eight 5-week-old male obese and lean Zucker rats (Harlan Orlac, Bicester, UK) were characterised by phenotype; maintained under controlled conditions of light (on 0800 h-2000 h) and temperature (21° C.) and allowed free access to standard rat chow. (Special Diet Services, Witham, UK) and drinking water. Drug treatment—Drug” for “Drug treatment—Drug”

[9] = molecular target: T4, 5β-reductase (Homo sapiens, UniProt P51857); conditions: reported (70); cited from earlier work
T4 sequence (P51857 1-326): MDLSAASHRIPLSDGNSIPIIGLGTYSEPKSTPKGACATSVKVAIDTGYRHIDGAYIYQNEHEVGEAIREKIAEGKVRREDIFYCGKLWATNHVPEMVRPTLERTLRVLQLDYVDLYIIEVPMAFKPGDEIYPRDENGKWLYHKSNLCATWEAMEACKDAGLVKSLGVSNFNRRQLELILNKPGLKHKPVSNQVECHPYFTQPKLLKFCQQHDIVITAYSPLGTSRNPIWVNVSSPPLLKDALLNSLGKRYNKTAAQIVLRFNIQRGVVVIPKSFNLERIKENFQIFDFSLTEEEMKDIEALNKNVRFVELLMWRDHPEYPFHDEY

[10] = test system: glucocorticoid receptor-mediated response in human skin; assay: Skin blanching after topical application to forearm skin; type: in vivo; conditions: applied together with beclomethasone, 12 healthy humans
Method: The intensity of skin blanching was recorded the following day by two observers who were blind to the order of application of steroid solutions, as described (80).

[11] = molecular target: T1, 11β-HSD1; assay: Incubation of beclomethasone with homogenised rat liver; type: in vitro ADME; set-up: incubation of beclomethasone with homogenised rat liver; from tissue; host or cells: homogenised rat liver; conditions: HPLC, UV 254 nm
[12] = non-fasting plasma, obese animals

T2 sequence (P28845 whole entry): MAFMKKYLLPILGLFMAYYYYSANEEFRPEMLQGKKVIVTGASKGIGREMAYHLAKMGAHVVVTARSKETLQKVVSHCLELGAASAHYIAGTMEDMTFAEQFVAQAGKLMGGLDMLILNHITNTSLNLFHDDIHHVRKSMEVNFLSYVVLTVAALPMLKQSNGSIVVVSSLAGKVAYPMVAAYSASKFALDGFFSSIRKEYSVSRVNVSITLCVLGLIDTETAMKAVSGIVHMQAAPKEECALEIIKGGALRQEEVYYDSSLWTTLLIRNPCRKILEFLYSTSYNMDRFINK
T1 sequence (P16232 whole entry): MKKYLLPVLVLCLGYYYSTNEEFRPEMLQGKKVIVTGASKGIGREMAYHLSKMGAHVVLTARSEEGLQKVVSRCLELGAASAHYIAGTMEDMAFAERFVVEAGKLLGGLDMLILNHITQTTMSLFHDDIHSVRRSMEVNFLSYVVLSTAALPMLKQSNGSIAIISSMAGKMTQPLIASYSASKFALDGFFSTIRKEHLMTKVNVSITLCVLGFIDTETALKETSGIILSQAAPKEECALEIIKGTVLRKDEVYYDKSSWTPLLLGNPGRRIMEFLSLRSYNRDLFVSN

hepatic 11β-HSD1 activity (conversion of corticosterone to 11-dehydrocorticosterone) [4]: inhibition
hepatic 5β-reductase activity (conversion of corticosterone to 5β-tetrahydrocorticosterone) [7]: exacerbated the increase
SMILES: CC1(C)[C@@H](OC(=O)CCC(=O)O)CC[C@]2(C)[C@H]3C(=O)C=C4[C@@H]5C[C@@](C)(C(=O)O)CC[C@]5(C)CC[C@@]4(C)[C@]3(C)CC[C@@H]12 [Carbenoxolone]
plasma corticosterone levels ([1]; lean and obese, terminal blood, trend for carbenoxolone to increase): no statistically significant differences
adrenal weight ([1]; lean animals): no effect
adrenal weight (adrenal hypertrophy) ([1]; obese rats): ameliorated
HDL (high density lipoprotein) cholesterol concentrations [2]: raised
total cholesterol [2]: did not affect
triglyceride concentrations [2]: lowered
plasma insulin ([3]; 30 min after glucose, both lean and obese animals): increased
plasma insulin ([3]; 120 min after glucose, obese animals): increased
glucose tolerance ([3]; Zucker rats): no effect
plasma insulin ([3]; fasting state, both lean and obese animals): increased
plasma glucose ([3]; lean and obese, fasting and after oral glucose load, two weeks of treatment): no significant effect
non-fasting plasma NEFAs ([5]; all groups, lean and obese): not different
total cholesterol ([5]; non-fasting plasma, lean and obese rats, three weeks of treatment): not affected
HDL cholesterol [5, 12]: increased
triglycerides [5, 12]: reduced
amount of glucose required to maintain normoglycemia [6]: increases
forearm glucose uptake [6]: without altering
body weight [8]: no effect
food intake [8]: no effect

blanching response to beclomethasone (area under the dose-response curve) [10]: reduced
SMILES: CC1(C)[C@@H](O)CC[C@]2(C)[C@H]3C(=O)C=C4[C@@H]5C[C@@](C)(C(=O)O)CC[C@]5(C)CC[C@@]4(C)[C@]3(C)CC[C@@H]12 [Glycyrrhetinic acid]
inhibition of 5β-reductase [9]: inhibit

SMILES: C[C@H]1C[C@H]2[C@@H]3CCC4=CC(=O)C=C[C@]4(C)[C@@]3(Cl)[C@@H](O)C[C@]2(C)[C@@]1(O)C(=O)CO [beclomethasone]
conversion of beclomethasone to 11-dehydrobeclomethasone [11]: substrate
